Assay results: patent publication US20240050408A1, “USE OF MGLUR5 ANTAGONISTS FOR TREATING AMPHETAMINE ADDICTION” (NOVARTIS AG, priority 2020, published 2024)

What was measured:
Type in all cases: in vivo, human
[1] = test system: patients with Cocaine Use Disorder (CUD); assay: Phase 2 trial: Clinical Global Impression (CGI) improvement; details: P<0.001
Method: (§1) This study was conducted in patients with CUD and consisted of about a 21-day screening period followed by a 7-day baseline period, a 98-day outpatient treatment period, and an end of study visit evaluation about 14 days after the last study drug administration ([…]. A). Study treatment was taken twice daily (separated by about 12-hour intervals) with food. For patients in the mavoglurant arm [mavoglurant (free form) provided as modified release formulation (e.g. in WO2014/199316)], an uptitration regimen was performed for 14 days (50 mg b.i.d. from Days 1 to 7 and 100 mg b.i.d from Days 8 to 14) and was followed by 200 mg b.i.d for 84 days.
The primary endpoint was the proportion of cocaine use days during the treatment period, assessed by timeline followback [TLFB] cocaine self-report report. The secondary endpoints included a weekly urine analysis for a log-transformed quantitative measure of cocaine metabolite benzoylecgonine (BE), safety assessments (clinical parameters, suicidal ideation, adverse events [AE] and serious adverse events [SAE] at every visit), and pre- and post-dose levels of mavoglurant in the plasma. Exploratory endpoints included Clinical Global Impression (CGI; 2 components: CGI-S [rated illness severity], CGI-I [rated change from baseline]).
Observer Reported Outcome: • 1. […]

[2] = test system: patients with Cocaine Use Disorder (CUD); assay: Phase 2 trial: alcohol consumption by TLFB; details: difference vs placebo not statistically significant (P=0.072)
Method: as §1
Alcohol consumption was recorded by the subjects using TLFB. The number of drinks was recorded daily. […] The past consumption of alcohol was the proportion of alcohol over the 28 days preceding the screening visit, which was assessed retrospectively using the TLFB. […]
Patient Reported Outcome included: • 1. The TLFB cocaine: is a cocaine assessment method that obtains estimates of daily cocaine intake and has been evaluated with clinical and nonclinical populations. […] The TLFB alcohol: is a drinking assessment method that obtains estimates of daily drinking and has been evaluated with clinical and nonclinical populations. […]

[3] = test system: patients with Cocaine Use Disorder (CUD); assay: Phase 2 trial: hair analysis; details: end of study vs baseline; compared to placebo
Method: Hair analysis was used as an adjunct to urine samples collection and helps document drug use history. Hair specimens were collected and at baseline and at the end of the study. Patients with hair shorter than 3 cm or bleached and/or dyed hair (proximal 4 cm) were excluded from this assessment. If only the tip of long hairs were bleached, samples were collected.
The quantitative measures were log-transformed and individual ratio between end of study and baseline was calculated and listed by treatment, subject and visit/time. The log-transformed data profiles over time were explored, compared between treatment groups and the relationship between cocaine and alcohol measures in hair, in urine and timeline follow-back was assessed.
Summary statistics were provided by treatment and visit/time. Heatmaps to visualize the trend in the log-transformed quantitative measures were created. To explore the relationship between the log-transformed quantitative measures of the compounds being assayed and the timeline follow-back cocaine and alcohol measures, scatterplots were created for the end of study results. […]
To ensure that the hair analysis quantitative parameters only had numerical values, censored values were imputed as follows • Values below the LLOQ were replaced by LLOQ/2. • Values above the ULOQ were replaced by ULOQ.

## COC(=O)N1CC[C@@H]2[C@H]1CCC[C@@]2(O)C#Cc1cccc(C)c1 [mavoglurant, (-)-(3aR,4S,7aR)-4-Hydroxy-4-m-tolylethynyl-octahydro-indole-1-carboxylic acid methyl ester]
[1]; CGI-I improvement from baseline
  clinical improvement by CGI vs placebo (result in words): significantly enhanced clinical improvement
[1]; Day 98, placebo 46.6%
  CGI 'very much' and 'much' improved, patients: 90.9%
[2]
  alcohol consumption by TLFB: reduced alcohol consumption
[3]
  hair analysis: cocaine and metabolite, change from baseline: higher reductions from baseline as compared to placebo
